Measurements from patent publication US20170165247A1, “CRYSTALLINE COMPOUNDS OF DABIGATRAN ETEXILATE” (OLON S.p.A., priority 2014, published 2017).

Assays:
[1] = Kinetic dissolution of tablet in phosphate buffer pH 4.5; assay type: physicochemical; settings: for Average Conc.: tablet dissolution
Description: Kinetic Dissolution Experimental Conditions for Tablet Dissolution Dissolution Medium: […] Temperature: 37±0.5° C. Volume: 80 mL Time: 2 hrs Sample: Tablet (weight 200 mg) Stirring: Paddle 100 rpm Sampling time: 5 min, 15 min, 25 min, 35 min, 45 min, 60 min and 120 min. Repetitions: 2 for each experiment At the time fixed, withdraw 3 mL from each vessel. Reinstate the withdrawn volume. Filter each solution with 0.20 μm filter, discarding the first 1 mL. […] Each withdrawal was analyzed without further dilution. The sample was analyzed using the chromatographic conditions reported herein.

[2] = Thermodynamic solubility test in buffer solution (HPLC); assay type: physicochemical; settings: buffer pH 4.5, 37° C., 24 hours
Description: The solubility tests were performed in a buffer solution at ph 4.5 and compared with the solubility data of dabigatran etexilate mesylate (commercial form).
Thermodynamic Solubility Tests
The sample (approx. 50 mg) was weighted in a vial and left under magnetic stirring (approx. 300 rpm) in approx. 2 mL of buffer solution at 37° C. for 24 hours. The experiments were carried out at pH 4.5 and pH 6.8. The suspensions were filtered with 0.45 μm filter and analyzed by HPLC method previously reported. From the obtained area an opportune dilution of the sample was performed to obtain a value consistent with the Calibration Curve. Every diluted sample was analyzed by HPLC and the results were interpolated by the calibration curve.
Each experiment was replicated twice.

Row | Compound | Average Conc. ([1]; pH 4.5, time 5 min) | Average Conc. ([1]; pH 4.5, time 15 min) | Average Conc. ([1]; pH 4.5, time 25 min) | Average Conc. ([1]; pH 4.5, time 35 min) | Average Conc. ([1]; pH 4.5, time 45 min) | Average Conc. ([1]; pH 4.5, time 60 min) | Average Conc. ([1]; pH 4.5, time 120 min) | Average Conc. [2] [µg/mL] | dissolution rate compared with the mesylate salt (in words) ([1]; kinetic dissolution, phosphate buffer pH 4.5, 37° C.) | dissolution rate, times higher than the mesylate derivative ([1]; tablet, phosphate buffer pH 4.5, 37° C., paddle 100 rpm, compared with mesylate)
1 | CCCCCCOC(=O)N=C(N)c1ccc(NCc2nc3cc(C(=O)N(CCC(=O)OCC)c4ccccn4)ccc3n2C)cc1.O=C(O)c1cc(O)c(O)c(O)c1 [Dabigatran/gallate 1/1] | 10.01 | 28.10 | 44.94 | 62.45 | 75.18 | 90.21 | 106.50 | – | – | –
2 | CCCCCCOC(=O)N=C(N)c1ccc(NCc2nc3cc(C(=O)N(CCC(=O)OCC)c4ccccn4)ccc3n2C)cc1.O=C(O)c1cc(=O)[nH]c(=O)[nH]1 [Dabigatran/orotate 1/1] | 8.76 | 11.06 | 12.26 | 13.74 | 15.52 | 17.21 | 28.89 | – | – | –
3 | Gallate | – | – | – | – | – | – | – | 0.40 | – | –
4 | CCCCCCOC(=O)NC(=N)c1ccc(NCc2nc3cc(C(=O)N(CCC(=O)OCC)c4ccccn4)ccc3n2C)cc1.CS(=O)(=O)O [Dabigatran/mesylate 1/1] | 6.86 | 9.09 | 11.40 | 13.28 | 15.96 | 18.55 | 26.44 | – | – | –
5 | Dabigatran Etexilate Orotate Anhydrous Form a (Dabigatran/Orotic Acid 1/1 Mol/Mole) | – | – | – | – | – | – | – | – | comparable | more than 8.7 times
